Read-outs that look alike come from different tables or passages of the source.
Assays:
[1] = test system: breast cancer cell line MX-1; test: MX-1 cell line proliferation assay (3-day); type: cell-based; conditions: MX-1 cells, Cell Titer Glo, read-out: Cellular proliferation: EC50
Experimental: The impact of compounds of the Examples on cancer cell proliferation was determined using the breast cancer cell line MX-1 (ATCC) in a 3-day proliferation assay. MX-1 cells were maintained in RPMI supplemented with 10% FBS at 37° C. and an atmosphere of 5% CO2. For compound testing, MX-1 cells were plated in 96-well black bottom plates at a density of 5000 cells/well in 90 μL of culture media and incubated at 37° overnight to allow cell adhesion and spreading. Compound dilution series were prepared in DMSO via a 3-fold serial dilution from 3 mM to 0.1 μM. The DMSO dilution series were then diluted 1:100 in phosphate buffered saline, and 10 μL of the resulted solution were added to the appropriate wells of the MX-1 cell plate. The final compound concentrations in the wells were 3, 1, 0.3, 0.1, 0.03, 0.01, 0.003, 0.001, 0.0003 and 0.0001 μM.
Luminescence readings from the Cell Titer Glo assay were normalized to the DMSO treated cells and analyzed using the GraphPad Prism software with sigmoidal curve fitting to obtain EC50s.

[2] = molecular target: T1, first (BD1: amino acids K57-E168) bromodomain of BRD4 (Homo sapiens, UniProt O60885); test: TR-FRET bromodomain binding assay, BRD4 BD1; conditions: Ki calculated from IC50, probe Kd and probe concentration, read-out: TR-FRET Binding Ki: BRD4 (BDI_K57-E168)
T1 construct: His-tagged first (BD1: amino acids K57-E168)
How it was run: (§1)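 Displacement of an Alexa647-labelled BET-inhibitor from His-tagged BD1 (K57-E168) or BD2 ([…]) measured by TR-FRET in pH 6.0 sodium phosphate buffer with NaCl, EDTA, Triton X-100 and DTT.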

[3] = molecular target: T2, second (BD2: amino acids E352-E168) bromodomain of BRD4 (Homo sapiens, UniProt O60885); test: TR-FRET bromodomain binding assay, BRD4 BD2; conditions: Ki calculated from IC50, probe Kd and probe concentration, read-out: TR-FRET Binding Ki: BRD4 (BDII_E352-M457)
T2 construct: protocol
How it was run: as §1

[4] = TR-FRET assay protocol (A-G, compound concentration range)
[5] = Homo sapiens, MX1, 72 h incubation
[6] = TR-FRET assay protocol (D, E or G) per compound

Compound: 1-(2-chloro-5-fluorophenyl)-N-[4-(2,4-difluorophenoxy)-3-(4-ethoxy-1-methyl-6-oxo-1,6-dihydropyridin-3-yl)phenyl]methanesulfonamide [Example 350]
- EC50 ([1]; 72 h incubation): 1000 nM

Compound: Cn1nc(-c2ccccc2Oc2ccccc2)ccc1=O [Example 1, 2-methyl-6-(2-phenoxyphenyl)pyridazin-3(2H)-one]
- Ki [2, 4]: 1870 nM
- Ki [3, 4]: 2050 nM
- EC50 [1, 5]: 20000 nM

Compound: Cn1nc(-c2ccccc2OCc2ccccc2)ccc1=O [Example 2, 6-[2-(benzyloxy)phenyl]-2-methylpyridazin-3(2H)-one]
- Ki [2, 4]: 11700 nM
- Ki [3, 4]: 2860 nM
- EC50 [1, 5]: 13500 nM

Compound: Cn1cc(-c2cc(NS(C)(=O)=O)ccc2Oc2ccc(F)cc2F)c(C(F)(F)F)cc1=O [Example 5, N-{4-(2,4-difluorophenoxy)-3-[1-methyl-6-oxo-4-(trifluoromethyl)-1,6-dihydropyridin-3-yl]phenyl}methanesulfonamide]
- Ki [2, 4]: 922 nM
- Ki [3, 4]: 688 nM
- EC50 [1, 5]: > 3000 nM

Compound: Cn1nc(-c2cc(N)ccc2Oc2ccccc2)ccc1=O [Example 10, 6-(5-amino-2-phenoxyphenyl)-2-methylpyridazin-3(2H)-one]
- Ki [2, 4]: 2440 nM
- Ki [3, 4]: 1500 nM
- EC50 [1, 5]: 3700 nM

Compound: Cc1ccc(S(=O)(=O)Nc2ccc(Oc3ccccc3)c(-c3ccc(=O)n(C)n3)c2)cc1 [Example 11, 4-methyl-N-[3-(1-methyl-6-oxo-1,6-dihydropyridazin-3-yl)-4-phenoxyphenyl]benzenesulfonamide]
- Ki [2, 4]: 4040 nM
- Ki [3, 4]: 4370 nM
- EC50 [1, 5]: 9460 nM

Compound: CC(=O)Nc1ccc(Oc2ccccc2)c(-c2ccc(=O)n(C)n2)c1 [Example 12, N-[3-(1-methyl-6-oxo-1,6-dihydropyridazin-3-yl)-4-phenoxyphenyl]acetamide]
- Ki [2, 4]: 575 nM
- Ki [3, 4]: 696 nM
- EC50 [1, 5]: 2660 nM

Compound: Cn1nc(-c2cc(C(N)=O)ccc2Oc2ccccc2)ccc1=O [Example 14, 3-(1-methyl-6-oxo-1,6-dihydropyridazin-3-yl)-4-phenoxybenzamide]
- Ki [2, 4]: 2550 nM
- Ki [3, 4]: 1220 nM
- EC50 [1, 5]: 11500 nM

Compound: COc1cc(=O)n(C)nc1-c1cc(NS(=O)(=O)N(C)C)ccc1Oc1ccccc1 [Example 31, N′-[3-(4-methoxy-1-methyl-6-oxo-1,6-dihydropyridazin-3-yl)-4-phenoxyphenyl]-N,N-dimethylsulfuric diamide]
- Ki [3, 4]: 46.5 nM
- EC50 [1, 5]: 420 nM

Compound: CCS(=O)(=O)c1ccc(Oc2ccc(F)cc2F)c(-c2cn(C)c(=O)cc2Cl)c1 [Example 382, 4-chloro-5-[2-(2,4-difluorophenoxy)-5-(ethylsulfonyl)phenyl]-1-methylpyridin-2(1H)-one]
- Ki [2, 6]: 317 nM
- Ki [3, 6]: 276 nM

Compound: CCOC(=O)N1CCC(Oc2ccc(NS(=O)(=O)CC)cc2-c2cn(C)c(=O)cc2OCC)CC1 [Example 388, ethyl 4-{2-(4-ethoxy-1-methyl-6-oxo-1,6-dihydropyridin-3-yl)-4-[(ethylsulfonyl)amino]phenoxy}piperidine-1-carboxylate]
- Ki [2, 6]: 766 nM
- Ki [3, 6]: 1420 nM

Compound: CCOc1cc(=O)n(C)cc1-c1cc(NS(=O)(=O)CC)ccc1OC1CCN(C(C)=O)CC1 [Example 389, N-{4-[(1-acetylpiperidin-4-yl)oxy]-3-(4-ethoxy-1-methyl-6-oxo-1,6-dihydropyridin-3-yl)phenyl}ethanesulfonamide]
- Ki [2, 6]: 1260 nM
- Ki [3, 6]: 3990 nM

Compound: CCOc1cc(=O)n(C)cc1-c1cc(NS(=O)(=O)CC)ccc1OC1Cc2ccccc2C1 [Example 394, N-[4-(2,3-dihydro-1H-inden-2-yloxy)-3-(4-ethoxy-1-methyl-6-oxo-1,6-dihydropyridin-3-yl)phenyl]ethanesulfonamide]
- Ki [2, 6]: 272 nM
- Ki [3, 6]: 516 nM

Compound: CCS(=O)(=O)c1ccc(Oc2ccc(F)cc2F)c(-c2cc(=O)n(C)cc2OCC(F)(F)F)c1 [Example 398, 4-[2-(2,4-difluorophenoxy)-5-(ethylsulfonyl)phenyl]-1-methyl-5-(2,2,2-trifluoroethoxy)pyridin-2(1H)-one]
- EC50 ([1]; 72 hours with compound): 450 nM

Compound: CCS(=O)(=O)c1ccc(Oc2ccc(F)cc2F)c(-c2cn(C)c(=O)cc2OCC(F)(F)F)c1 [Example 398]
- Ki [2, 6]: 203 nM
- Ki [3, 6]: 30.9 nM

Compound: CCOc1cc(=O)n(C)cc1-c1cc(N)ccc1Oc1ccc(F)cc1F [Example 406, 5-[5-amino-2-(2,4-difluorophenoxy)phenyl]-4-ethoxy-1-methylpyridin-2(1H)-one]
- Ki [2, 6]: 1550 nM
- Ki [3, 6]: 567 nM

Compound: CCOc1cc(=O)n(C)cc1-c1cc(S(C)(=O)=O)ccc1NCc1ccc(F)cc1F [Example 409, 5-{2-[(2,4-difluorobenzyl)amino]-5-(methylsulfonyl)phenyl}-4-ethoxy-1-methylpyridin-2(1H)-one]
- Ki [2, 6]: 2010 nM
- Ki [3, 6]: 1100 nM

Compound: CCOc1cc(=O)n(C)cc1-c1cc(NS(=O)(=O)CC)ccc1OC1CCN(c2ccc(C(F)(F)F)cc2)CC1 [Example 410, N-[3-(4-ethoxy-1-methyl-6-oxo-1,6-dihydropyridin-3-yl)-4-({1-[4-(trifluoromethyl)phenyl]piperidin-4-yl}oxy)phenyl]ethanesulfonamide]
- Ki [2, 6]: 590 nM
- Ki [3, 6]: 560 nM

Compound: CCOc1cc(=O)n(C)cc1-c1cc(NC(=O)c2ccc(C(C)C)cc2)ccc1Oc1ccc(F)cc1F [Example 413, N-[4-(2,4-difluorophenoxy)-3-(4-ethoxy-1-methyl-6-oxo-1,6-dihydropyridin-3-yl)phenyl]-4-(propan-2-yl)benzamide]
- Ki [2, 6]: 181 nM
- Ki [3, 6]: 148 nM

Compound: CCOc1cc(=O)n(C)cc1-c1cc(NC(=O)c2cnc(C)cn2)ccc1Oc1ccc(F)cc1F [Example 414, N-[4-(2,4-difluorophenoxy)-3-(4-ethoxy-1-methyl-6-oxo-1,6-dihydropyridin-3-yl)phenyl]-5-methylpyrazine-2-carboxamide]
- Ki [2, 6]: 61.4 nM
- Ki [3, 6]: 38.9 nM

Compound: CCOc1cc(=O)n(C)cc1-c1cc(NS(=O)(=O)c2ccc(C(C)(C)C)cc2)ccc1Oc1ccc(F)cc1F [Example 416, 4-tert-butyl-N-[4-(2,4-difluorophenoxy)-3-(4-ethoxy-1-methyl-6-oxo-1,6-dihydropyridin-3-yl)phenyl]benzenesulfonamide]
- Ki [2, 6]: 493 nM
- Ki [3, 6]: 281 nM

Compound: CCOc1cc(=O)n(C)cc1-c1cc(NS(=O)(=O)c2ccc(Cl)cc2Cl)ccc1Oc1ccc(F)cc1F [Example 417, 2,4-dichloro-N-[4-(2,4-difluorophenoxy)-3-(4-ethoxy-1-methyl-6-oxo-1,6-dihydropyridin-3-yl)phenyl]benzenesulfonamide]
- Ki [2, 6]: 259 nM
- Ki [3, 6]: 57.1 nM

Compound: CCOc1cc(=O)n(C)cc1-c1cc(NS(=O)(=O)c2ccc3ccccc3c2)ccc1Oc1ccc(F)cc1F [Example 418, N-[4-(2,4-difluorophenoxy)-3-(4-ethoxy-1-methyl-6-oxo-1,6-dihydropyridin-3-yl)phenyl]naphthalene-2-sulfonamide]
- Ki [2, 6]: 362 nM
- Ki [3, 6]: 165 nM

Compound: N-[4-(2,4-difluorophenoxy)-3-(4-ethoxy-1-methyl-6-oxo-1,6-dihydropyridin-3-yl)phenyl]-1-phenylmethanesulfonamide [Example 311]
- EC50 ([1]; 72 h incubation): 1000 nM

Compound: N-{4-(4-cyanophenoxy)-3-[1-methyl-6-oxo-4-(2,2,2-trifluoroethoxy)-1,6-dihydropyridin-3-yl]phenyl}ethanesulfonamide [Example 374]
- EC50 ([1]; 72 hours with compound): 76.1 nM

— patent US9561231B2 (AbbVie Inc., priority 2012, dated 2017)
